The values that follow come from ChEMBL document CHEMBL1201862, “PubChem BioAssay data set” (2004).

Test systems include A498; CCRF-CEM; COLO 205; DU-145; HCC 2998; HCT-116; HOP-92; HT-29; IGROV-1; LOX IMVI; MDA-MB-435; MDA-N; Malme-3M; NCI/ADR-RES; OVCAR-3; PC-3; SK-MEL-2; SW-620; TK-10; UACC-62.
Holding throughout (test): inhibition of tumour cell growth, NCI panel, 48 h

Molecules are shown by their SMILES.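 Method: 48-hour compound exposure of cells in 96-well plates, five concentrations, linear interpolation of endpoints. GI50 is the concentration that inhibits growth by half.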 The source made the active and inactive calls. Rule as the data show it: active = GI50 up to about 1.1 µM and inactive = higher. Some results are limits rather than exact numbers.

Regarding `O=C1C=CC(=O)c2cc(Sc3ccccc3)c(=O)ccc21`, the GI50 in the test on A498 is 16.2 µM (inactive); in the test with CCRF-CEM, 1.76 µM (inactive); in the test with COLO 205, 7.73 µM (inactive); in the test on DU-145 it was 17.4 µM (inactive); with HCC 2998, 16.3 µM (inactive); with HCT-116 it was 18 µM (inactive). Moreover, the GI50 was 10.4 µM (inactive) in the test on HOP-92; 20.6 µM (inactive) in the test with HT-29; 18.5 µM (inactive) in the test on IGROV-1; 13.1 µM (inactive) in the test on LOX IMVI; 25.5 µM (inactive) in the test with MDA-MB-435; 16.9 µM (inactive) in the test with MDA-N. Besides, the GI50 in the test on Malme-3M was 12.7 µM (inactive); in the test with NCI/ADR-RES, 22 µM (inactive); in the test with OVCAR-3, 16.9 µM (inactive); with PC-3, 18.2 µM (inactive); in the test on SK-MEL-2 it was 13.6 µM (inactive); with SW-620, 3.83 µM (inactive). In addition, the GI50 in the test with TK-10 was 17.1 µM (inactive); with UACC-62 it was 15.5 µM (inactive).
For the compound `O=C1C=CC(=O)c2c1ccc1c3ccccc3n(Cc3cccc([N+](=O)[O-])c3)c21`, the GI50 with A498 is 58.3 µM (inactive); in the test with CCRF-CEM it was 8.36 µM (inactive); in the test with COLO 205 it was 14.3 µM (inactive); in the test on DU-145 it was > 100 µM (inactive); in the test on HCC 2998, > 80.7 µM (inactive); in the test with HCT-116, 24.5 µM (inactive). Moreover, the GI50 in the test on HOP-92 is 20.1 µM (inactive); in the test with HT-29 it was 30.4 µM (inactive); in the test with IGROV-1, 22.9 µM (inactive); with LOX IMVI, 33.9 µM (inactive); in the test on MDA-MB-435, 26.2 µM (inactive); in the test on MDA-N, 16 µM (inactive). For the same compound, the GI50 with Malme-3M is 19.5 µM (inactive); in the test with NCI/ADR-RES, 37.8 µM (inactive); in the test with OVCAR-3, 17.1 µM (inactive); in the test on PC-3, 30.1 µM (inactive); with SK-MEL-2 it was 39.8 µM (inactive); with SW-620, 11.5 µM (inactive). In addition, the results for the GI50 in the test with TK-10 and in the test with UACC-62 were 20 µM (inactive) and > 46 µM (inactive), respectively.
As for `Cn1c(CC(O)c2nc3ccccc3n2C)nc2ccccc21` (stereo not drawn), the GI50 in the test on A498 was > 32.9 µM (inactive); in the test with CCRF-CEM, 2.65 µM (inactive); with COLO 205 it was > 28.4 µM (inactive); in the test on DU-145 it was > 14.6 µM (inactive); in the test with HCC 2998, > 100 µM (inactive); with HCT-116 it was > 23.7 µM (inactive). For the same compound, the GI50 with HOP-92 was > 24.4 µM (inactive); in the test with HT-29, > 32.8 µM (inactive); with IGROV-1 it was > 17.4 µM (inactive); in the test with LOX IMVI, > 28.8 µM (inactive); in the test with MDA-MB-435, > 18.5 µM (inactive); with MDA-N, > 100 µM (inactive). The GI50 in the test with Malme-3M was > 21.1 µM (inactive); in the test with NCI/ADR-RES it was 29.9 µM (inactive); with OVCAR-3, > 13.1 µM (inactive); with PC-3, > 29.2 µM (inactive); in the test with SK-MEL-2, > 31.3 µM (inactive); in the test with SW-620 it was > 16 µM (inactive). The GI50 is > 25.1 µM (inactive) in the test with TK-10 and > 34.8 µM (inactive) in the test with UACC-62.
For `CN(C)CC(O)CNC(=O)Nc1ccccc1` (stereo not drawn), the GI50 in the test on A498, with CCRF-CEM, in the test with COLO 205, in the test on DU-145, with HCC 2998 and in the test on HCT-116 was > 100 µM (inactive) each time. Also, the GI50 in the test on HOP-92, with HT-29, with IGROV-1, in the test on LOX IMVI, with MDA-MB-435 and with MDA-N was > 100 µM (inactive) in each case. Besides, the GI50 in the test with Malme-3M, with NCI/ADR-RES, in the test on OVCAR-3, in the test with PC-3, in the test with SK-MEL-2 and with SW-620 was > 100 µM (inactive) each time. The GI50 in the test with TK-10 and with UACC-62 was > 100 µM (inactive) throughout.
Consider `COc1cc(/C=C2\N=C(c3ccccc3)N(c3nc4ccc(Sc5ccccc5)cc4[nH]3)C2=O)cc(OC)c1OC`, for which the GI50 was 22 µM (inactive) with A498; 27.1 µM (inactive) in the test with CCRF-CEM; 18.9 µM (inactive) with COLO 205; 21.8 µM (inactive) in the test with DU-145; 16.5 µM (inactive) with HCC 2998; 20.7 µM (inactive) in the test with HCT-116. Further, the GI50 with HOP-92 was 58.6 µM (inactive); in the test on HT-29, 21.4 µM (inactive); in the test on IGROV-1, 45.4 µM (inactive); in the test with LOX IMVI it was 23.3 µM (inactive); with MDA-MB-435, 5.19 µM (inactive); in the test on MDA-N, 4.76 µM (inactive). Besides, the GI50 in the test on Malme-3M is 16.9 µM (inactive); with NCI/ADR-RES, 20.4 µM (inactive); with OVCAR-3, 22.6 µM (inactive); with PC-3 it was 26.9 µM (inactive); with SK-MEL-2, 15.4 µM (inactive); with SW-620 it was 25 µM (inactive). Besides, the GI50 with TK-10 was 24.6 µM (inactive); with UACC-62 it was 15.4 µM (inactive).
As to `Cc1ccc(-c2cn3c(nc4ccccc43)c(-c3ccccc3)n2)cc1`, the GI50 is 30.9 µM (inactive) with A498; > 100 µM (inactive) in the test on CCRF-CEM; > 100 µM (inactive) in the test with COLO 205; > 100 µM (inactive) in the test with DU-145; > 100 µM (inactive) in the test on HCC 2998; 75 µM (inactive) in the test with HCT-116. Moreover, the GI50 is 20.7 µM (inactive) in the test with HOP-92; > 100 µM (inactive) with HT-29; 37.9 µM (inactive) in the test with IGROV-1; > 100 µM (inactive) in the test with LOX IMVI; > 100 µM (inactive) in the test on MDA-MB-435; > 100 µM (inactive) in the test with MDA-N. Moreover, the GI50 with Malme-3M is > 83 µM (inactive); in the test on NCI/ADR-RES, 47.9 µM (inactive); in the test on OVCAR-3, > 100 µM (inactive); in the test on PC-3, > 100 µM (inactive); in the test on SK-MEL-2 it was 18 µM (inactive); in the test on SW-620 it was > 100 µM (inactive). In addition, the GI50 in the test on TK-10 is 27.5 µM (inactive); in the test on UACC-62, 22.4 µM (inactive).
With `CCCCC1C=Cn2c(=O)oc3c(OC(C)C)c(C)c(O)c1c32` (stereo not drawn), the GI50 in the test on A498 is 0.0423 µM (active); in the test on CCRF-CEM, 1.68 µM (inactive); with COLO 205, 3.01 µM (inactive); in the test with DU-145, 0.652 µM (active); in the test with HCC 2998 it was 2.96 µM (inactive); with HCT-116, 0.977 µM (active). Moreover, the GI50 is 3.05 µM (inactive) with HOP-92; 2.7 µM (inactive) in the test with HT-29; 1.88 µM (inactive) in the test with IGROV-1; 0.566 µM (active) with LOX IMVI; 1.33 µM (inactive) in the test with MDA-MB-435; 2.37 µM (inactive) in the test with MDA-N. Moreover, the GI50 with Malme-3M is 1.47 µM (inactive); with NCI/ADR-RES it was 0.993 µM (active); in the test on OVCAR-3 it was 2.75 µM (inactive); with PC-3 it was 2.43 µM (inactive); with SK-MEL-2, 1.66 µM (inactive); in the test on SW-620, 0.904 µM (active). Moreover, the GI50 with TK-10 was 5.52 µM (inactive); in the test with UACC-62, 0.929 µM (active).
As for `CCc1cc(O)c(Cl)c(C)c1Cl`, the GI50 was 13 µM (inactive) with A498; 18.2 µM (inactive) in the test on CCRF-CEM; 21.4 µM (inactive) in the test on COLO 205; 16.7 µM (inactive) in the test with DU-145; 15.2 µM (inactive) in the test with HCC 2998; 16.1 µM (inactive) with HCT-116. The GI50 is 12.8 µM (inactive) with HOP-92; 19.2 µM (inactive) in the test with HT-29; 18.6 µM (inactive) in the test on IGROV-1; 15.9 µM (inactive) in the test on LOX IMVI; 16.4 µM (inactive) in the test on MDA-MB-435; 16.3 µM (inactive) in the test on MDA-N. The GI50 with Malme-3M is 19.4 µM (inactive); in the test with NCI/ADR-RES, 21.7 µM (inactive); with OVCAR-3, 18.2 µM (inactive); in the test with PC-3, 19.5 µM (inactive); in the test with SK-MEL-2 it was 43.3 µM (inactive); in the test on SW-620, 21.9 µM (inactive). Moreover, the GI50 with TK-10 was 18.2 µM (inactive); in the test on UACC-62, 15.1 µM (inactive).
Consider `COC(=O)[C@H](CNC(=O)/C=C/c1ccc(OC(C)=O)c(OC(C)=O)c1)NC(=O)/C=C/c1ccc(OC(C)=O)c(OC(C)=O)c1`, for which the GI50 in the test with A498 is > 100 µM (inactive); with CCRF-CEM, 39.3 µM (inactive); in the test with COLO 205 it was > 100 µM (inactive); with DU-145 it was > 100 µM (inactive); in the test with HCC 2998, > 100 µM (inactive); with HCT-116, > 100 µM (inactive). For the same compound, the GI50 in the test with HOP-92, with HT-29, in the test with IGROV-1, in the test on LOX IMVI, with MDA-MB-435 and with MDA-N was > 100 µM (inactive) in each case. Moreover, the GI50 in the test with Malme-3M is 16.4 µM (inactive); in the test on NCI/ADR-RES, > 100 µM (inactive); in the test on OVCAR-3, > 100 µM (inactive); in the test with PC-3, > 100 µM (inactive); with SK-MEL-2, > 100 µM (inactive); in the test on SW-620, > 100 µM (inactive). Moreover, in the test on UACC-62, the GI50 is > 100 µM (inactive).
As for `C=C(C)[C@@]1(O[Si](C)(C)C)CCCC[C@@H]1CC(Sc1ccccc1)Sc1ccccc1`, the GI50 in the test on A498 is 19.9 µM (inactive); with CCRF-CEM, 14.4 µM (inactive); in the test on COLO 205, 19.9 µM (inactive); in the test with DU-145 it was 15 µM (inactive); in the test on HCC 2998 it was 15.8 µM (inactive); in the test on HOP-92 it was 12.7 µM (inactive). The GI50 in the test on HT-29 is 19.7 µM (inactive); with IGROV-1 it was 15.6 µM (inactive); in the test with LOX IMVI, 17.9 µM (inactive); in the test on MDA-MB-435, 15.6 µM (inactive); in the test with MDA-N it was 15.4 µM (inactive); with Malme-3M it was 12.1 µM (inactive). Further, the GI50 with NCI/ADR-RES was 13.8 µM (inactive); in the test with OVCAR-3 it was 14.1 µM (inactive); in the test on PC-3 it was 13.2 µM (inactive); in the test with SK-MEL-2, 15 µM (inactive); in the test on SW-620, 14.1 µM (inactive); with TK-10, 15.4 µM (inactive). Besides, the GI50 with UACC-62 is 13.2 µM (inactive).
